# Measurements published in PMC9630125 (Oncogene, 2022).
# pIC50: −log10 of the molar value.
# Molecular target: Misshapen-like kinase 1 (MINK1) (Homo sapiens, UniProt Q8N4C8)
# Assay: ADP-Glo kinase assay with recombinant human MINK1, MBP substrate and ATP
# Assay type: biochemical
# Misshapen-like kinase 1 (MINK1), sequence (Q8N4C8 whole entry): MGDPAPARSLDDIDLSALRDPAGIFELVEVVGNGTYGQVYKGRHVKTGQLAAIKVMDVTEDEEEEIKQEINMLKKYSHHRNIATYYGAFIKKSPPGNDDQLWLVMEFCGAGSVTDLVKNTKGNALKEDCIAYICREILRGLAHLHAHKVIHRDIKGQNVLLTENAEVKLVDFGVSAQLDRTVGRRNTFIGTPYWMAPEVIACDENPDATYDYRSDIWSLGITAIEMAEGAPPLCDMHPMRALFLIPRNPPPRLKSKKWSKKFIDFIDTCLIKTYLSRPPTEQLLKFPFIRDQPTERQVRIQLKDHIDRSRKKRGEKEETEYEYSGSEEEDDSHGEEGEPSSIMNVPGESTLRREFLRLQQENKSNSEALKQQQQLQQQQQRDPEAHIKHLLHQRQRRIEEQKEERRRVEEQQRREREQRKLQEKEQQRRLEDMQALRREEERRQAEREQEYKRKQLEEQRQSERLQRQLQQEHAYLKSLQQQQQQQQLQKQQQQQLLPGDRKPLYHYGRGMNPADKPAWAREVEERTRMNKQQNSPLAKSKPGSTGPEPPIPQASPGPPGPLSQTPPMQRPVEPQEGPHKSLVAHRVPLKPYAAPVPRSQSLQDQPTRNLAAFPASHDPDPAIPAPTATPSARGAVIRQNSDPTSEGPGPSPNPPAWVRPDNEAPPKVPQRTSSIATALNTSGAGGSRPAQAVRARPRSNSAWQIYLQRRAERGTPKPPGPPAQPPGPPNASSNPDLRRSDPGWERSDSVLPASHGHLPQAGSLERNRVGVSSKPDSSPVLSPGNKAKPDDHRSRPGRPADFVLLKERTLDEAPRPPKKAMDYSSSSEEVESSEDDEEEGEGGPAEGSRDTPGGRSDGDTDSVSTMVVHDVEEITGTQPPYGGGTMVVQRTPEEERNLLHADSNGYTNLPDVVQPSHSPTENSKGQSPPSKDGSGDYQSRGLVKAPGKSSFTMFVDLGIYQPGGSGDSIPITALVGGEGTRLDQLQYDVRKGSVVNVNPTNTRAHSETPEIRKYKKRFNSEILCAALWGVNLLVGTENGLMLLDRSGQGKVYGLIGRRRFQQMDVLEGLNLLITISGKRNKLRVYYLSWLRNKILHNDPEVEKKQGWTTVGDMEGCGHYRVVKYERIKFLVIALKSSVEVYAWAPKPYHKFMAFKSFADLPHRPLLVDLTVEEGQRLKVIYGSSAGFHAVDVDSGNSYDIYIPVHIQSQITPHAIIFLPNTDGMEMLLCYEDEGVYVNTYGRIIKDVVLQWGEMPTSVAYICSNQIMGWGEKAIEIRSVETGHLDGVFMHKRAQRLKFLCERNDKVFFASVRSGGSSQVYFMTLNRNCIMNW
smiles,measurement,value
Cc1ccc(-n2nc(C(C)(C)C)cc2NC(=O)NCc2cc(F)ccc2Oc2ccc3c(cnn3CCO)c2)cc1 [pexmetinib],pIC50,5.00
